These results are taken from PMC12809495, “Potential 14-3-3 binding sites in sirtuins reveal extended phosphosite-recognition modes” (Acta Crystallographica Section F: Structural Biology …, 2026).

Read-outs that look alike come from different tables or passages of the source. Where a SMILES comes first, the peptide text is derived from it. [ ]: non-standard residue; d: D form. pT = C[C@@H](OP(=O)(O)O)[C@H](N)C(=O)O; pS = N[C@@H](COP(=O)(O)O)C(=O)O

Experiment [1] deals with T1, 14-3-3 isoform epsilon (Homo sapiens, UniProt P62258).
T1 construct: His6; made in house; host or cells: Escherichia coli BL21 Rosetta (DE3)
T1 sequence (P62258 1-255): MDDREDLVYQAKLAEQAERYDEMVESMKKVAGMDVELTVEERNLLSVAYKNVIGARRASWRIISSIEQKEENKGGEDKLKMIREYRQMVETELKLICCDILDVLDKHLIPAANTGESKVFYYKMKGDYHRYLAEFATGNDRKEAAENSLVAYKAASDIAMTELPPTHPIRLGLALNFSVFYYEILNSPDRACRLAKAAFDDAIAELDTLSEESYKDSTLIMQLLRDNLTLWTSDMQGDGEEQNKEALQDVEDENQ
Description: Label-free microscale thermophoresis (MST) binding, 14-3-3 epsilon. The method, then: (§1) The binding of phosphorylated sirtuin peptides (Fig. 1 ▸) was analyzed using the change in the intrinsic fluorescence signal of the 14-3-3 proteins measured with label-free microscale thermophoresis using a Nanotemper Monolith NT.LabelFree or NT.115. A typical binding experiment using 0.6 µM 14-3-3 protein was performed in a modified MST buffer consisting of 25 mM MES pH 6.5, 5 mM MgCl2, 5 mM CaCl2. The measurements were performed at 25°C using a LED power of 10–40%. All measurements were performed at least in duplicate, and the results shown are representative measurements individually fitted using GraFit 7 (Erathicus Software, Horley, United Kingdom).
(§2) Figure 1 Classification and analysis of sirtuin PSSM results for potential 14-3-3 phosphoserine binding sites. Peptides with a gray background were not analyzed experimentally. Score is the overall PSSM score for the phosphorylation site; rank is the order within the 17 proposed sirtuin binding sites. Conserved residues in the 14-3-3 motifs are marked in green. Residues with restricted (proline) or very flexible (glycine) protein backbone or with a very large side chain (tryptophan) are marked in red. Amino acids with the same or similar hydrophobicity/size are shown in magenta. Kd values from duplicate measurements are colored green for Kd < 100 µM. Fields marked in red indicate no binding or no successful experiment. TEXT PRINTED IN THE PICTURE: Sirt1 S26: Affinity estimates by MicroScale Thermophoresis [μM], 14-3-3 isoform sigma: none | Sirt1 S670: Affinity estimates by MicroScale Thermophoresis [μM], 14-3-3 isoform gamma: aggr.; Affinity estimates by MicroScale Thermophoresis [μM], 14-3-3 isoform epsilon: > 183; Affinity estimates by MicroScale Thermophoresis [μM], 14-3-3 isoform theta: 93; Affinity estimates by MicroScale Thermophoresis [μM], 14-3-3 isoform sigma: 5 | Sirt3 S103: Affinity estimates by MicroScale Thermophoresis [μM], 14-3-3 isoform gamma: aggr.; Affinity estimates by MicroScale Thermophoresis [μM], 14-3-3 isoform epsilon: > 267; Affinity estimates by MicroScale Thermophoresis [μM], 14-3-3 isoform theta: 52; Affinity estimates by MicroScale Thermophoresis [μM], 14-3-3 isoform sigma: 10 | Sirt3 S103wt: Affinity estimates by MicroScale Thermophoresis [μM], 14-3-3 isoform gamma: aggr.; Affinity estimates by MicroScale Thermophoresis [μM], 14-3-3 isoform theta: none; Affinity estimates by MicroScale Thermophoresis [μM], 14-3-3 isoform sigma: none | Sirt3 S105: Affinity estimates by MicroScale Thermophoresis [μM], 14-3-3 isoform gamma: aggr.; Affinity estimates by MicroScale Thermophoresis [μM], 14-3-3 isoform epsilon: > 215; Affinity estimates by MicroScale Thermophoresis [μM], 14-3-3 isoform theta: 60; Affinity estimates by MicroScale Thermophoresis [μM], 14-3-3 isoform sigma: none | Sirt5 S168: Affinity estimates by MicroScale Thermophoresis [μM], 14-3-3 isoform epsilon: aggr.; Affinity estimates by MicroScale Thermophoresis [μM], 14-3-3 isoform theta: aggr.; Affinity estimates by MicroScale Thermophoresis [μM], 14-3-3 isoform sigma: > 329 | Sirt6 T337: Affinity estimates by MicroScale Thermophoresis [μM], 14-3-3 isoform epsilon: > 420; Affinity estimates by MicroScale Thermophoresis [μM], 14-3-3 isoform sigma: 12 | Sirt6 S338: Affinity estimates by MicroScale Thermophoresis [μM], 14-3-3 isoform epsilon: 19; Affinity estimates by MicroScale Thermophoresis [μM], 14-3-3 isoform sigma: 24 | Sirt7 S136: Affinity estimates by MicroScale Thermophoresis [μM], 14-3-3 isoform epsilon: none; Affinity estimates by MicroScale Thermophoresis [μM], 14-3-3 isoform theta: 30; Affinity estimates by MicroScale Thermophoresis [μM], 14-3-3 isoform sigma: 49
(Microscale thermophoresis detects binding through changes in fluorescence in a small temperature gradient.)

Experiment [2] deals with T2, 14-3-3σ-ΔC (Homo sapiens, UniProt P31947).
T2 construct: His6; made in house; host or cells: Escherichia coli BL21 Rosetta (DE3)
T2 sequence (P31947 1-231 limits assumed): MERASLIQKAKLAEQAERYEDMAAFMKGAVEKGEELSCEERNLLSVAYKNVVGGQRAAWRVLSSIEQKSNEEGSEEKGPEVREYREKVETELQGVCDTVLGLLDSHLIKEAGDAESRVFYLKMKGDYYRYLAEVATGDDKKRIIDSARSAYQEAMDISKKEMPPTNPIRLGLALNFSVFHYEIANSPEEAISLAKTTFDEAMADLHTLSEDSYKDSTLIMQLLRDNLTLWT
Put plainly: Label-free microscale thermophoresis (MST) binding, 14-3-3σ. The note with it: for Affinity estimates by MicroScale Thermophoresis, 14-3-3 isoform sigma (Kd): Fig. 1, label-free MST, 0.6 µM 14-3-3 protein, 25 mM MES pH 6.5, 5 mM MgCl2, 5 mM CaCl2, 25°C, Kd from duplicate measurements. Here is the method: as §1, §2
For nine of the sites, including sites from all sirtuin isoforms except Sirt4, endecameric phosphopeptides were chemically synthesized for in vitro analysis. […]

Experiment [3] deals with T3, 14-3-3 isoform gamma (Homo sapiens, UniProt P61981).
T3 construct: His6; made in house; host or cells: Escherichia coli BL21 Rosetta (DE3)
T3 sequence (P61981 1-247): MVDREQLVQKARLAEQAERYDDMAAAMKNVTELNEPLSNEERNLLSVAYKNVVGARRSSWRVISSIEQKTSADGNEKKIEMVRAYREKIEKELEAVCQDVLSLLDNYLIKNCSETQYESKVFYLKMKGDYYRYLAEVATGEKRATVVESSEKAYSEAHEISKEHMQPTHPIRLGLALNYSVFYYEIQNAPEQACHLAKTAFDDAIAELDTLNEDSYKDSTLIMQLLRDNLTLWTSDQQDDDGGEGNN
Description: Label-free microscale thermophoresis (MST) binding, 14-3-3 gamma. The following applies: 0.6 µM 14-3-3 protein, 25 mM MES pH 6.5, 5 mM MgCl2, 5 mM CaCl2, 25°C, Kd from duplicate measurements, aggr. = no successful experiment. The method, then:
as §1
Figure 1 Classification and analysis of sirtuin PSSM results for potential 14-3-3 phosphoserine binding sites. Peptides with a gray background were not analyzed experimentally. Score is the overall PSSM score for the phosphorylation site; rank is the order within the 17 proposed sirtuin binding sites. Conserved residues in the 14-3-3 motifs are marked in green. Residues with restricted (proline) or very flexible (glycine) protein backbone or with a very large side chain (tryptophan) are marked in red. Amino acids with the same or similar hydrophobicity/size are shown in magenta. Kd values from duplicate measurements are colored green for Kd < 100 µM. Fields marked in red indicate no binding or no successful experiment. […]

The target in experiment [4] is T4, 14-3-3 isoform theta (Homo sapiens, UniProt P27348).
T4 construct: His6; made in house; host or cells: Escherichia coli BL21 Rosetta (DE3)
T4 sequence (P27348 1-245): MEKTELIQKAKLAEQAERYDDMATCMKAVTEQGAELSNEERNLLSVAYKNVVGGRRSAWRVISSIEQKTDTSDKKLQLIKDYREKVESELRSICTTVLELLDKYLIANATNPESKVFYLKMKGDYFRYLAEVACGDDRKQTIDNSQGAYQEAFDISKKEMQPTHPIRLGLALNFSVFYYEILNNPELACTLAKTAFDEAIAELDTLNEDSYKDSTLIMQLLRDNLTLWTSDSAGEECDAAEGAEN
Description: Label-free microscale thermophoresis (MST) binding, 14-3-3 theta. The following applies: for Affinity estimates by MicroScale Thermophoresis, 14-3-3 isoform theta (Kd): label-free MST, 0.6 µM 14-3-3 protein, 25 mM MES pH 6.5, 5 mM MgCl2, 5 mM CaCl2, 25°C, Kd from duplicate measurements. Here is the method:
as §1, §2

The term Kd denotes the free concentration of one partner at which half of the binding sites on the other are occupied at equilibrium, for simple one-to-one binding. For the compound `C[C@H](NC(=O)[C@@H]1CCCN1C(=O)[C@H](COP(=O)(O)O)NC(=O)[C@@H](NC(=O)[C@@H]1CCCN1C(=O)[C@H](CCCNC(=N)N)NC(=O)[C@H](CCC(=O)O)NC(=O)[C@@H](N)CCCNC(=N)N)[C@@H](C)O)C(=O)N1CCC[C@H]1C(=O)N[C@@H](Cc1c[nH]cn1)C(=O)N[C@@H](CCCNC(=N)N)C(=O)O` [Sirt6^pS338] (H-RERPT[pS]PAPHR-OH), the Kd in experiment [1] (label-free MST, 0.6 µM 14-3-3 protein, 25 mM MES pH 6.5, 5 mM MgCl2, 5 mM CaCl2, 25°C, Kd from duplicate measurements, read-out: Affinity estimates by MicroScale Thermophoresis, 14-3-3 isoform epsilon (Kd)) was 19 µM.

On to `C[C@H](NC(=O)[C@@H]1CCCN1C(=O)[C@H](CO)NC(=O)[C@@H](NC(=O)[C@@H]1CCCN1C(=O)[C@H](CCCNC(=N)N)NC(=O)[C@H](CCC(=O)O)NC(=O)[C@H](CCCNC(=N)N)NC(=O)[C@@H](N)CCCCN)[C@@H](C)OP(=O)(O)O)C(=O)N1CCC[C@H]1C(=O)N[C@@H](Cc1c[nH]cn1)C(=O)O` [Sirt6^pT337] (H-KRERP[pT]SPAPH-OH), for which the Kd in experiment [1] was > 420 µM.

As to `CC[C@H](C)[C@H](NC(=O)[C@H](CO)NC(=O)[C@H](CCCNC(=N)N)NC(=O)[C@H](CCCNC(=N)N)NC(=O)CN)C(=O)N[C@@H](COP(=O)(O)O)C(=O)N[C@@H](Cc1ccccc1)C(=O)N[C@@H](CO)C(=O)N[C@H](C(=O)NCC(=O)N[C@@H](C)C(=O)O)C(C)C` [Sirt3^pS103] (H-GRRSI[pS]FSVGA-OH), the Kd in experiment [2] was 2.1 ± 1.1 µM; in experiment [4] it was 52 µM; in experiment [1], > 267 µM. For the same compound, the “Affinity estimates by MicroScale Thermophoresis, 14-3-3 isoform gamma (Kd)” value (“Affinity estimates … 14-3-3 isoform gamma (Kd)” for short) in experiment [3] is reported as “aggr”.

For `CC[C@H](C)[C@H](NC(=O)[C@H](CO)NC(=O)[C@@H](N)CCCNC(=N)N)C(=O)N[C@@H](CO)C(=O)N[C@@H](Cc1ccccc1)C(=O)N[C@@H](COP(=O)(O)O)C(=O)N[C@H](C(=O)NCC(=O)N[C@@H](C)C(=O)N[C@@H](CO)C(=O)N[C@@H](CO)C(=O)O)C(C)C` [Sirt3^pS105] (H-RSISF[pS]VGASS-OH), the Kd in experiment [2] is 19.4 ± 3 µM; in experiment [4] it was 60 µM; in experiment [1], > 215 µM. Besides, in experiment [2], the “Affinity estimates by MicroScale Thermophoresis, 14-3-3 isoform sigma (Kd)” value is reported as “none”. Moreover, in experiment [3], the “Affinity estimates … 14-3-3 isoform gamma (Kd)” value is on record as “aggr”.

Regarding `CC(C)[C@H](NC(=O)CNC(=O)[C@H](CS)NC(=O)[C@H](COP(=O)(O)O)NC(=O)[C@@H](NC(=O)[C@H](CS)NC(=O)[C@H](CCCNC(=N)N)NC(=O)[C@@H](NC(=O)[C@@H](N)CCCCN)[C@@H](C)O)[C@@H](C)O)C(=O)N[C@H](C(=O)N[C@@H](C)C(=O)O)C(C)C` [Sirt5 S168] (H-KTRCT[pS]CGVVA-OH; N-terminus and C-terminus assumed), the “Affinity estimates by MicroScale Thermophoresis, 14-3-3 isoform theta (Kd)” value in experiment [4] is reported as “aggr”. For the same compound, in experiment [1] (label-free MST, 0.6 µM 14-3-3 protein, 25 mM MES pH 6.5, 5 mM MgCl2, 5 mM CaCl2, 25°C, Kd from duplicate measurements), the “Affinity estimates by MicroScale Thermophoresis, 14-3-3 isoform epsilon (Kd)” value is given as “aggr”.

Regarding `CC[C@H](C)[C@H](NC(=O)[C@H](CO)NC(=O)[C@H](CCCNC(=N)N)NC(=O)[C@H](CCCNC(=N)N)NC(=O)CN)C(=O)N[C@@H](CO)C(=O)N[C@@H](Cc1ccccc1)C(=O)N[C@@H](CO)C(=O)N[C@H](C(=O)NCC(=O)N[C@@H](C)C(=O)O)C(C)C` [Sirt3^S103] (H-GRRSISFSVGA-OH), the “Affinity estimates by MicroScale Thermophoresis, 14-3-3 isoform sigma (Kd)” value in experiment [2] was “none”. Further, the “Affinity estimates … 14-3-3 isoform gamma (Kd)” value in experiment [3] is reported as “aggr”. Also, the “Affinity estimates by MicroScale Thermophoresis, 14-3-3 isoform theta (Kd)” value in experiment [4] is given as “none”.
